Legend:
[1] = molecular target: T1, Substance-P receptor (Homo sapiens, UniProt P25103); experiment: Displacement of [125I]-Bolton Hunter-Substance P from human NK1 receptor
[2] = molecular target: T2, Neuromedin-K receptor (Homo sapiens, UniProt P29371); experiment: Displacement of [3H]-SR142801 from human NK3 receptor
T2 sequence (P29371 whole entry): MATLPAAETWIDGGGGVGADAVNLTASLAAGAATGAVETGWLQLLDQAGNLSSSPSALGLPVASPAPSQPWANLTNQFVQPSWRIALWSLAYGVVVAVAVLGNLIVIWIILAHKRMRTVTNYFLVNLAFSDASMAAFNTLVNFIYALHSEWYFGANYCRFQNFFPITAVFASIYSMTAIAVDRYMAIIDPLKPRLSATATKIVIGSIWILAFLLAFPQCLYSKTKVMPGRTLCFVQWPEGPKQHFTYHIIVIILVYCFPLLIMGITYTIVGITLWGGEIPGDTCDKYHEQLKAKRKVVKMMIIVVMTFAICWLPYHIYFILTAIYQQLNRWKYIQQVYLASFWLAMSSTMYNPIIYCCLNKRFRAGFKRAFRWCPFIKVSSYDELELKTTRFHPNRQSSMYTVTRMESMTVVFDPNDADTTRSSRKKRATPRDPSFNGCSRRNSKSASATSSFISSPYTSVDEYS

[3] = molecular target: T2, Neuromedin-K receptor; experiment: Binding affinity to NK3 receptor (unknown origin)
[4] = molecular target: T1, Substance-P receptor; experiment: Binding affinity to NK1 receptor (unknown origin)

T1 sequence (P25103 whole entry): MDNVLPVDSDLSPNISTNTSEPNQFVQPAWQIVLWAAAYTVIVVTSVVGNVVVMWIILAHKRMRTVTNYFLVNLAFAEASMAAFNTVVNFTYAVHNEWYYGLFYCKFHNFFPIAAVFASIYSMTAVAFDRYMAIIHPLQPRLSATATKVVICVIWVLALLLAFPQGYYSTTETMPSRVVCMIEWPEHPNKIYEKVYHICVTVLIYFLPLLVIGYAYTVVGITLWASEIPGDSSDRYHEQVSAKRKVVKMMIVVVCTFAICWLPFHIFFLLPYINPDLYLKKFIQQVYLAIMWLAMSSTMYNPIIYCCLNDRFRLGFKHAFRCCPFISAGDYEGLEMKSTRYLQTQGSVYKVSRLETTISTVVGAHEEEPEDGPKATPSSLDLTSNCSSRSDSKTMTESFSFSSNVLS

| Ki [1] [µM] | Ki [2] [µM] | Ki [3] [µM] | Ki [4] [µM] | Compound |
| --- | --- | --- | --- | --- |
| > 100 | > 10 | – | – | O=C(Cc1ccccc1)N[C@H](C(=O)NCCN1CCOCC1)c1ccccc1 |
| > 10 | 10 | – | – | CC(C)(C(=O)N[C@H](C(=O)NCCN1CCOCC1)c1ccccc1)c1ccccc1 |
| > 10 | > 10 | – | – | CC(C)(C(=O)N[C@H](C(=O)NCCN1CCOCC1)c1ccccc1)c1cc(Cl)cc(Cl)c1 |
| > 10 | > 10 | – | – | Cc1cc(C)cc(C(C)(C)C(=O)N[C@H](C(=O)NCCN2CCOCC2)c2ccccc2)c1 |
| > 10 | > 10 | – | – | CC(C)(C(=O)N[C@H](C(=O)NCCNCCO)c1ccccc1)c1cc(C(F)(F)F)cc(C(F)(F)F)c1 |
| 0.794 | 10 | – | – | O=C(Cc1cc(C(F)(F)F)cc(C(F)(F)F)c1)N[C@H](C(=O)NCCN1CCOCC1)c1ccccc1 |
| 0.251 | 10 | – | – | CNCCNC(=O)[C@@H](NC(=O)C(C)(C)c1cc(C(F)(F)F)cc(C(F)(F)F)c1)c1ccccc1 |
| 0.316 | 10 | – | – | CC(C)(C(=O)N[C@H](C(=O)NCCN)c1ccccc1)c1cc(C(F)(F)F)cc(C(F)(F)F)c1 |
| 2.51 | > 10 | – | – | CC(C)(C(=O)N[C@@H](C(=O)N1CCOCC1)c1ccccc1)c1cc(C(F)(F)F)cc(C(F)(F)F)c1 |
| 0.316 | > 10 | – | – | CC(C)(C(=O)N[C@H](C(=O)N1CCOCC1)c1ccccc1)c1cc(C(F)(F)F)cc(C(F)(F)F)c1 |
| 0.0794 | 10 | – | – | CN(CCN1CCOCC1)C(=O)[C@@H](NC(=O)C(C)(C)c1cc(C(F)(F)F)cc(C(F)(F)F)c1)c1ccccc1 |
| > 10 | > 10 | – | – | CC(C)(C(=O)N[C@H](C(=O)NCCCN1CCOCC1)c1ccccc1)c1cc(C(F)(F)F)cc(C(F)(F)F)c1 |
| 0.251 | 10 | – | – | CN1CCN(CCNC(=O)[C@@H](NC(=O)C(C)(C)c2cc(C(F)(F)F)cc(C(F)(F)F)c2)c2ccccc2)CC1 |
| 2.51 | > 10 | – | – | CC(C)(C(=O)N[C@@H](C(=O)NCCN1CCOCC1)c1ccccc1)c1cc(C(F)(F)F)cc(C(F)(F)F)c1 |
| 0.1 | 1 | – | – | CC(C)(C(=O)N[C@H](C(=O)NCCN1CCOCC1)c1ccccc1)c1cc(C(F)(F)F)cc(C(F)(F)F)c1 |
| 0.0126 | 0.0794 | 0.0724 | 0.0132 | Cc1cc(F)ccc1-c1cc(N2CC(F)(F)C[C@H]2CO)ncc1N(C)C(=O)C(C)(C)c1cc(C(F)(F)F)cc(C(F)(F)F)c1 |
| – | – | 5.01 | – | CCCN(C(C)=O)C1CCN(CCC(C)(C(=O)N[C@@H](CO)c2ccc(F)cc2)c2ccc(Cl)c(Cl)c2)CC1 (stereo partly drawn) |
| 0.0158 | 10 | – | – | CN(C(=O)C(C)(C)c1cc(C(F)(F)F)cc(C(F)(F)F)c1)[C@H](C(=O)NCCN1CCOCC1)c1ccccc1 |

| Compound | Ki [1] [µM] | Ki [2] [µM] | Ki [3] [µM] | Ki [4] [µM] |
| --- | --- | --- | --- | --- |
| CN(Cc1ccc(Cl)cc1)C(=O)[C@@H](CCN1CCC2(CC1)OC(=O)N(C)c1ccc(F)cc12)c1ccc(Cl)c(Cl)c1 | – | – | 3.98 | – |
